Test results taken from patent publication US20020147318A1, “Preparation method of water soluble carboxylmethyl chitosan having anti-lipid peroxidation ability” (priority 2001, published 2002).
Converted amounts (≈) assume the structure as drawn.

Test system: lipid peroxidation in rat liver microsomes
Experiment: Anti-lipid peroxidation in rat liver microsomes (NADPH-induced, MDA-TBA absorbance at 535 nm)
Type: biochemical
Procedure: In the present, the rat microsomes is used to provide lipid source. The product of lipid peroxidation induced by NADPH with heat treatment (deconstructing microsome enzyme) is referred as MDA (malondialdehyde). The MDA is added with TBA (thiobarbituric acid) to form MDA-TBA compound with pink fluorescence. The MDA-TBA compound has absorption spectrum at 535 nm (or 532 nm) wavelength. The content of MDA can be manifested by the absorption degree of light at those wavelengths. Therefore, the degree of lipid peroxidation can also be known. If the content of MDA is decreased after addition of water soluble CM chitosan, the reduction of MDA can be attributed to the water soluble CM chitosan. It means that the water soluble CM chitosan has the ability of anti-lipid peroxidation. In the present invention, the anti-lipid peroxidation ability of the water soluble CM chitosan is compared with that of the Trolex (water soluble vitamin E).

effect on lipid peroxidation in rat liver microsomes (addition of the substance to rat liver microsomes): can suppress the lipid peroxidation
IC50 (the concentration required to suppress 50% lipid peroxidation) (rat liver microsomes, average over at least three data): 4.96 µg/mL (≈ 19.8 µM)
SMILES: Cc1c(C)c2c(c(C)c1O)CCC(C)(C(=O)O)O2 (stereo not drawn) [Trolex]
MDA, the product of lipid peroxidation (as the added amount of the substance is increased): monotonically decreased
